This note sets out measurements from patent US6579902B1, “Ribose-substituted aromatic amides, method for the production and use thereof as medicaments” (Aventis Pharma S.A., priority 1999, dated 2003).

In brackets after ≈: the same amount, converted by molar mass.

What all share (type): cell-based
Assay [1] deals with bacterial strain. In words: Activity in vitro, method of dilutions in a liquid medium (overall statement). The note with it: summary of the MIC test on the listed strains. The protocol: (§1) A—Method of Dilutions in a Liquid Medium
(§2) A series of tubes was prepared in which the same quantity of sterile nutritive medium is distributed. Increasing quantities of the product to be studied are distributed in each tube, then each tube is seeded with a bacterial strain. After incubation for 24 hours in an oven at 37° C., the growth inhibition is evaluated by transillumination which allows the minimum inhibitory concentrations (M.I.C) to be determined, expressed in micrograms/cm^3.

In assay [2] the test system is Entero faecalis 02D2UC5. In words: MIC, method of dilutions in a liquid medium. To be noted: incubation 24 hours at 37° C. As to the method: as §1, §2
Assay [3] deals with Staph. Coag. Negative 012HT5. The assay is described as follows: MIC, method of dilutions in a liquid medium. To be noted: incubation 24 hours at 37° C. As to the method:
as §1, §2

For assay [4], the system named is Staph. aureus 011HT18. In words: MIC, method of dilutions in a liquid medium. To be noted: incubation 24 hours at 37° C. As to the method: as §1, §2
Assay [5] relates to Staph. epidermidis 0126042. In words: MIC, method of dilutions in a liquid medium. To be noted: incubation 24 hours at 37° C. As to the method:
as §1, §2

For assay [6], the system named is Entero faecium 02D3IP2. In words: MIC, method of dilutions in a liquid medium. To be noted: incubation 24 hours at 37° C. As to the method: as §1, §2
Assay [7] relates to Strepto. pyogene 02A1UC1. The assay is described as follows: MIC, method of dilutions in a liquid medium. To be noted: incubation 24 hours at 37° C. As to the method:
as §1, §2

The subject of assay [8] is Strepto pneumoniae 030BI2. In words: MIC, method of dilutions in a liquid medium. To be noted: incubation 24 hours at 37° C. The protocol:
as §1, §2

Take `C#CCONC(=O)OC1C(O)C(c2ccc3c(O)c(NC(=O)c4ccccc4)c(=O)oc3c2C)OC2(CCCC2)C1OC` (stereo not drawn) [EX. 10, [7R-(7.α.,8.β,9.β,10.α)]-(2-Propynyloxy)-carbamate of 8-Hydroxy-7-[4-hydroxy-8-methyl-2-oxo-3-(benzoylamino)-2H-1-benzopyran-7-yl)-10-methoxy-6-oxaspiro[4,5]decan-9-yl]: the “activity in vitro (in words)” value in assay [1] is on record as “excellent activity”. Besides, the MIC (in general, the lowest concentration that inhibits growth of the organism) in assay [2] is 1.2 µg/mL (≈ 2.02 µM); in assay [3] it was 0.08 µg/mL (≈ 0.135 µM); in assay [4], “≦0.04 μg/ml”; in assay [5] it was “≦0.04 μg/ml”; in assay [6], 0.63 µg/mL (≈ 1.06 µM); in assay [7] it was 0.16 µg/mL (≈ 0.27 µM). Besides, in assay [8], the MIC result is given as “≦0.04 μg/ml”.

Take `C#CCONC(=O)OC1CC(c2ccc3c(O)c(NC(=O)C(C)C)c(=O)oc3c2C)OC2(CCCC2)C1OC` (stereo not drawn) [EX. 11, [7R-(7.α.,8β.,9β.,10.α)]-(2-Propynyloxy)-carbamate of 7-[4-Hydroxy-8-methyl-3-[(2-methyl-1-oxo-propyl)amino]-2-oxo-2H-1-benzopyran-7-yl]-10-methoxy-6-oxaspiro[4,5]decan-9-yl]: in assay [1], the “activity in vitro (in words)” value is reported as “excellent activity”. Moreover, the MIC in assay [2] was 0.63 µg/mL (≈ 1.16 µM); in assay [3], 0.15 µg/mL (≈ 0.276 µM); in assay [4] it was “≦0.04 μg/ml”; in assay [5], “≦0.04 μg/ml”; in assay [6], 0.32 µg/mL (≈ 0.59 µM); in assay [7], 0.08 µg/mL (≈ 0.147 µM). Moreover, the MIC entry in assay [8] is on record as “≦0.04 μg/ml”.
